# System: Human Jurkat T-cells (clone N)
# Assay: Jurkat T-cell activation (anti-TCR, CD69 upregulation)
# Assay type: cell-based
# Details: not given
# Outline: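 Jurkat cells in RPMI + 5% FBS preincubated with compound 1 h at 37 °C, then stimulated with anti-TCR C305 at 500 ng/ml for 20 h. CD69 surface expression stained with anti-CD69-APC and read by flow cytometry; IC50 versus solvent-only control.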
row,SMILES,IC50 [µM]
1,COc1cc(C(=O)NS(=O)(=O)c2ccccc2C)ccc1Cn1ncc2ccc(Nc3ncc(F)c(Nc4cccc(O)c4)n3)cc21 [Compound R935324],> 10
2,CNC(=O)COc1cccc(Nc2ncc(F)c(Nc3ccc4c(c3)OCCO4)n2)c1 [Compound R926816],0.739
3,CNC(=O)C(C)(Oc1cccc(Nc2ncc(F)c(Nc3ccc(OC(C)C)cc3)n2)c1)C(=O)NC [Compound R935196],1.1
4,CCOC(=O)COc1ccc(Nc2nc(Nc3ccc(OCC(=O)OCC)cc3)c(NC(=O)NC(=O)OCC)c(C(=O)OCC)n2)cc1 [Compound R926586],> 10
5,O=[N+]([O-])c1ccc(NCCO)c(Nc2ncc(F)c(Nc3cc([N+](=O)[O-])ccc3NCCO)n2)c1 [Compound R950150],> 10
6,CC(C)Oc1ccc(Nc2ncc(F)c(Nc3ccc4[nH]ncc4c3)n2)cc1 [Compound R935266],> 10
7,C[C@H](Nc1nc(Nc2ccc3c(c2)OCCO3)ncc1F)[C@H](O)c1ccccc1 [Compound R925766],> 10
8,O=C(COc1cccc(Nc2ncc(F)c(Nc3cccc(O)c3)n2)c1)N1CCNCC1 [Compound R926773],1.84
9,COc1ccc(-c2ccccc2)cc1Nc1ncc(F)c(Nc2cc(-c3ccccc3)ccc2OC)n1 [Compound R926400],> 10
10,Cn1nnc(COc2ccc(Nc3nc(Nc4ccc(OCc5nnnn5C)cc4)ncc3F)cc2)n1 [Compound R945047],3.21
11,OCCn1ncc2ccc(Nc3ncc(F)c(Nc4ccc5c(c4)OCCO5)n3)cc21 [Compound R935248],1.9
12,CCOC(=O)COc1ccc(Nc2ncc(F)c(Nc3ccc4c(c3)OCCO4)n2)cc1 [Compound R925747],> 10
13,Oc1cccc(Nc2ncc(F)c(Nc3ccc(OCCN4CCOCC4)cc3)n2)c1 [Compound R926710],4.27
14,CCOC(=O)c1cnc(Nc2cccc(O)c2)nc1N[C@@H](Cc1ccccc1)C(=O)OCC [Compound R926528],> 10
15,CCOC(=O)COc1ccc(Nc2ncc(Br)c(Nc3cccc(O)c3)n2)cc1 [Compound R926396],6.59
16,COC(=O)COc1ccc(Nc2ccnc(Nc3ccc(OCC(=O)OC)cc3)n2)cc1 [Compound R926256],> 10
17,CNC(=O)COc1ccc(Nc2ncc(F)c(Nc3ccc4c(c3)OCCCO4)n2)cc1 [Compound R935184],4.08
18,CCCNC(=O)COc1ccc(Nc2ncc(C#N)c(Nc3ccc(OCC(=O)NCCC)cc3)n2)cc1 [Compound R925853],> 10
19,O=C(O)COc1ccc(Nc2ncc(F)c(Nc3ccc4c(c3)OCCO4)n2)cc1 [Compound R926238],> 10

# More lines, now with the values ahead:
row,IC50 [µM],SMILES
1,> 10,CCOC(=O)COc1cccc(Nc2nc(Nc3cc(OC)cc(OC)c3)ncc2F)c1 [Compound R926804]
2,0.973,O=C(c1cc2cc(Nc3ncc(F)c(Nc4ccc5c(c4)OCCO5)n3)ccc2o1)N1CCCNCC1 [Compound R926768]
3,2.32,CCOC(=O)CCn1ncc2cc(Nc3ncc(F)c(Nc4ccc5c(c4)OCCO5)n3)ccc21 [Compound R935301]
4,1.64,CNC(=O)COc1cccc(Nc2ncc(F)c(Nc3ccc(OC)c(F)c3)n2)c1 [Compound R926892]
5,3.15,CNC(=O)COc1cccc(Nc2ncc(F)c(Nc3cccc(N)c3)n2)c1 [Compound R950262]
6,8.16,CNC(=O)CCn1ncc2ccc(Nc3ncc(F)c(Nc4cccc(O)c4)n3)cc21 [Compound R935294]
7,> 10,OB(O)c1cccc(Nc2ncc(F)c(Nc3ccc4c(c3)OCCO4)n2)c1 [Compound R926837]
8,> 10,COC(=O)COc1ccc(Nc2ncc(F)c(Nc3ccc4c(cnn4C)c3)n2)cc1 [Compound R935209]
9,7.03,CNC(=O)COc1cccc(Nc2ncc(F)c(Nc3ccc(OC)c(CN4CCOCC4)c3)n2)c1 [Compound R940314]
10,0.655,O=C(COc1cccc(Nc2ncc(F)c(Nc3ccc4c(c3)NCCO4)n2)c1)NCCCO [Compound R909252]
11,3.68,Cc1ccc(Nc2ncc(F)c(Nc3ccc(C)c(O)c3)n2)cc1O [Compound R926341]
12,2.58,CNC(=O)COc1cccc(Nc2ncc(F)c(Nc3ccc4c(c3)C=CCO4)n2)c1 [Compound R950385]
13,2.94,CNC(=O)COc1cccc(Nc2ncc(F)c(Nc3ccc4c(c3)OCC(=O)N4C)n2)c1 [Compound R909261]
14,9.28,CNC(=O)COc1cccc(Nc2ncc(F)c(Nc3ccc(OC)c(C(=O)OC)c3)n2)c1 [Compound R940300]
15,2.92,O=C1CN=C2COc3ccc(Nc4nc(Nc5cccc(O)c5)ncc4F)cc3N12 [Compound R945236]
16,3.48,CNC(=O)COc1ccc(Nc2ncc(F)c(Nc3ccc4c(cnn4C)c3)n2)cc1 [Compound R935216]
17,0.732,Cn1ncc2cc(Nc3ncc(F)c(Nc4cccc(O)c4)n3)ccc21 [Compound R935194]
18,4.37,Cc1nc(COc2cccc(Nc3ncc(F)c(Nc4ccc5oc(C(N)=O)cc5c4)n3)c2)no1 [Compound R945135]
19,4.12,CNC(=O)COc1ccc(Nc2ncc(F)c(Nc3cccc(O)c3)n2)cc1 [Compound R945170]
20,> 10,O=C(c1cccc(Nc2ncc(F)c(Nc3cccc(O)c3)n2)c1)N1CCOCC1 [Compound R926938]
21,> 10,COC(=O)Cn1ncc2cc(Nc3nc(Nc4ccc(OC(C)C)cc4)ncc3F)ccc21 [Compound R935242]
22,13,CCOC(=O)COc1cccc(Nc2ncc(F)c(Nc3ccc4c(c3)OCCN4)n2)c1 [Compound R909266]
23,4.71,COC(=O)COc1cccc(Nc2ncc(F)c(Nc3ccc4c(c3)C(OC)CCO4)n2)c1 (centres unmarked) [Compound R950295]

# Same assay, conditions: Homo sapiens
row,SMILES,IC50 [µM]
1,COc1ccc([N+](=O)[O-])cc1Nc1ncc(F)c(Nc2cc([N+](=O)[O-])ccc2OC)n1 [Compound R950151],14.2
2,O=[N+]([O-])c1ccc(O)c(Nc2ccnc(Nc3cc([N+](=O)[O-])ccc3O)n2)c1 [Compound R950155],> 10

# Same assay, conditions: Homo sapiens, Jurkat
row,SMILES,IC50 [µM]
1,COc1ccc(Nc2ccnc(Nc3ccc(OC)c(-c4ccccc4)c3)n2)cc1-c1ccccc1 [Compound R925806],> 10
2,COc1ccc(Nc2nc(NCCN3CCN(Cc4ccccc4)CC3)ncc2F)cc1OC [Compound R940262],6.45
3,Fc1cc(F)cc(Nc2ncc(F)c(Nc3ccc4c(c3)OCCO4)n2)c1 [Compound R926898],> 10
4,Cc1cc(Nc2ncc(F)c(Nc3cccc(C(C)(C)C)c3)n2)cc(Cl)c1O [Compound R940271],> 10
5,COc1ccc(CNc2ncc(F)c(Nc3ccc4c(c3)OCCO4)n2)cc1 [Compound R926230],> 10
6,Fc1cnc(Nc2ccc3c(c2)OCCO3)nc1NC1CCCCC1 [Compound R925794],> 10
7,CC(C)Oc1ccc(Nc2nc(Nc3ccc(C(C)(C)CO)cc3)ncc2F)cc1 [Compound R935151],1.96
8,Nc1cccc(Nc2ncc(F)c(Nc3cccc(N)c3)n2)c1 [Compound R950107],5.42
9,Oc1cccc(Nc2nc(NCc3csc4ccccc34)ncc2F)c1 [Compound R945164],> 10
10,OC(CNc1ncc(F)c(NCC(O)c2ccccc2)n1)c1ccccc1 (centres unmarked) [Compound R925768],> 10
11,COc1ccc(Nc2ncc(Br)c(Nc3ccc(OC)c(-c4ccccc4)c3)n2)cc1-c1ccccc1 [Compound R925802],> 10
12,CCNC(=O)Nc1cccc(Nc2ncc(F)c(Nc3cccc(NC(=O)NCC)c3)n2)c1 [Compound R945045],7.6
13,CC(C)Oc1ccc(Nc2ncc(F)c(Nc3ccc(C(C)(C)CO)cc3)n2)cc1 [Compound R935168],3.71
14,CCOC(=O)c1nc(Nc2cccc(O)c2)nc(Nc2cccc(O)c2)c1[N+](=O)[O-] [Compound R925849],8.02
15,Clc1cc(Nc2ccc3c(c2)OCCO3)nc(Nc2ccc3c(c2)OCCO3)n1 [Compound R926245],11.1
16,CC(C)Oc1ccc(Nc2nc(Nc3ccc(OCCO)cc3)ncc2F)cc1 [Compound R935160],2.37
17,CCOC(=O)Cc1ccc(Nc2ncc(C#N)c(Nc3ccc(CC(=O)OCC)cc3)n2)cc1 [Compound R926662],> 10
18,Fc1cnc(Nc2ccc3c(c2)OC(F)(F)O3)nc1Nc1ccc2c(c1)OCCO2 [Compound R926386],> 10
19,OCCN(CCO)c1cccc(Nc2ncc(F)c(Nc3ccc4c(c3)OCCO4)n2)c1 [Compound R950209],3.8
20,COc1ccc(-c2ccccc2)cc1Nc1ccnc(Nc2cc(-c3ccccc3)ccc2OC)n1 [Compound R925805],> 10

# Other lines, results leading:
row,IC50 [µM],SMILES
1,1.98,OCCOc1cccc(Nc2nc(Nc3ccc4c(c3)OCCO4)ncc2F)c1 [Compound R935176]
2,1.31,COC(=O)c1cc(Nc2ncc(F)c(Nc3cccc(O)c3)n2)ccc1OC [Compound R940301]
3,> 10,O=c1ccc2cc(Nc3ncc(F)c(Nc4ccc5oc(=O)ccc5c4)n3)ccc2o1 [Compound R926617]
4,> 10,CC(C)(C)c1ccc(Nc2nc(Nc3ccc4oc(C(=O)O)cc4c3)ncc2F)cc1 [Compound R926481]
5,> 10,COc1cc(Nc2ncc(F)c(Nc3ccc(C(=O)O)c(OC)c3)n2)ccc1C(=O)O [Compound R945068]
6,8.92,COC(=O)c1cc2cc(Nc3ncc(F)c(Nc4cccc(N)c4)n3)ccc2o1 [Compound R950162]
7,7.11,Nc1cccc(Nc2ncc(F)c(Nc3cccc(O)c3)n2)c1 [Compound R950227]
8,5.73,O=C(NCCO)c1cc2cc(Nc3ncc(F)c(Nc4ccc5c(c4)OCCO5)n3)ccc2o1 [Compound R926498]
9,> 10,COC(=O)c1ccc(Nc2ncc(F)c(Nc3ccc(C(=O)OC)cc3)n2)cc1 [Compound R945034]
10,2.15,COc1ccc(Nc2ncc(F)c(Nc3ccc(OC)c(O)c3)n2)cc1O [Compound R926339]
11,> 10,COc1ccc(Nc2ncc(F)c(Nc3ccc(OC)c(C(=O)O)c3)n2)cc1C(=O)O [Compound R945067]
12,> 10,Fc1cnc(Nc2cccc(Cl)c2)nc1Nc1cccc(Cl)c1 [Compound R926209]
13,> 10,COc1ccc(Nc2nc(Nc3cccc(C(C)(C)C)c3)ncc2F)cc1OC [Compound R940260]
